These results are taken from US20040019092A1, “Non-peptide somatostatin receptor ligands” (priority 2001, published 2004).

In experiment [1] the test system is GHRH stimulated GH secretion. The experiment in a line: GH secretion, rat in urethan anesthesia, intraduodenal + repeated GHRH stimulation. It counts as in vivo. The following applies: urethan. From the text:
No further treatment followed subcutaneous or intraduodenal application. […] This value has been determined in a total of four independent experiments. […] However, in further studies compound 47 has also been tested by the enteral route of administration after repeated stimulation of the GH secretion by GHRH. […] With most of these selected compounds additional in vivo experiments in other models (intraduodenal application followed by repeated stimulation of the GH secretion by GHRH, oral application by gavage of unanesthetized, estradiol primed rats) were performed. Table 4 summarizes data obtained for the inhibition of the stimulated GH secretion after subcutaneous, intraduodenal and intravenous application and the inhibitory effects obtained for different time points during intravenous infusion of selected hydantoins. […] [table]

Experiment [2] deals with basal plasma levels of growth hormone, glucagon, insulin and glucose. Put plainly: Endocrine parameters in the Rhesus monkey after subcutaneous administration. Format: in vivo. As for the experimental part: Therefore, they were further investigated in the Rhesus monkey and their activity profile was determined. Using subcutaneous administration, they were characterized in this species, by measuring their effects on the basal plasma levels of growth hormone, glucagon, insulin as well changes in glucose levels.
Animals and blood sampling: Rhesus monkeys, fed on the previous day in the morning with fruits only, were placed, slightly anesthetized with ketamin (Ketalar©, Parke-Davis), in primate chairs and brought to the experimental room. A catheter, consisting of an in-dwelling cannula (Vasocan Braunüle, 20G, B. Braun Melsungen AG, D-Melsungen), an extension line made from PP 800/110/260/100 Portex© tubing and a special adapter between cannula and tubing with a minimal void volume, was placed in a saphenic vein. The total volume of this catheter was approximately 0.7 mL. The distal end was placed through a hole in the wall to the adjacent room in order to allow infusion and blood sampling without being noticed by the animal. The animals were monitored with a video system.
During the entire duration of the experiment an infusion of 5 to 10 mL/h of isotonic saline (NaCl 0.9% Braun, B. Braun Medical AG, CH-Emmenbrücke) containing heparin sodium 80 mg/L (Biochemie GMBH, A-Kundl) was maintained, using a roller pump (Vario-Perpex, Guldener, CH-Zürich). At each sampling time 1.5 mL (twice the void volume of the catheter) was taken in one syringe before collecting the actual blood sample of 2 mL in another syringe. The first 1.5 mL were reinfused immediately after the actual sample had been taken. The sample was mixed with 0.1 mL of a mixture containing EDTA (ethlenediaminetetraacetic acid tetrasodium Fluka, CH-Buchs) and aprotinin (Trasylol©, Bayer) resulting in final concentrations of 1.8 mg/mL and 1000 KIE/mL, respectively. The blood samples were kept on ice and spun in a cooled centrifuge. […]
Determinations: The blood levels of the hormones were determined by radioimmunoassay (RIA) using the appropriate antisera, antibodies, labels and standards, glucose by an enzymatic assay: […]

The structures appear in SMILES notation.

In the case of `Cc1cccc2c(CC3C(=O)N(CCCCCN)C(=O)N3S(=O)(=O)c3ccc(Oc4ccc(O)c(Cl)c4)c(C#N)c3)c[nH]c12` (stereo not drawn) [Compound 44], the “INTRADUODENAL + GHRH ID50 15′” value in experiment [1] (ø = no effect at this dose) is 13 mg/kg. In addition, in experiment [1], the “INTRADUODENAL + GHRH ID50 30′” value was determined as 16 mg/kg and the “INTRADUODENAL + GHRH ID50 60′” value was determined as 19 mg/kg. Also, in experiment [2] (up to 1100 μg/kg), the “inhibitory effects on hormone release” value is “no consistent inhibitory effects”.
Regarding `Cc1cccc2c(CC3C(=O)N(CCCCCN)C(=O)N3S(=O)(=O)c3ccc(Oc4ccc(O)cc4)c(CN)c3)c[nH]c12` (stereo not drawn) [Compound 45], the “INTRADUODENAL + GHRH ID50 15′” value in experiment [1] (ø = no effect at this dose) came out at 4.663 mg/kg. Besides, in experiment [1], the “INTRADUODENAL + GHRH ID50 30′” value worked out at 6.52 mg/kg and the “INTRADUODENAL + GHRH ID50 60′” value came to 14.047 mg/kg. Further, the “INTRADUODENAL + GHRH ID50 120′” value in experiment [1] (120′, ø = no effect at this dose) is on record as “˜22000 μg/kg”. In experiment [2], the “dose levels necessary for inhibition of hormone release, times higher than Octreotride” value was “about 100 times”.
